Results: patent US20240239790A1, “7-Morpholino-1,6-Naphthyridin-5-yl Derivatives and Pharmaceutical Compositions Thereof Useful as DNA-PK Inhibitor” (adMare Therapeutics Society, priority 2021, published 2024)
pIC50: −log10 of the molar value.

Assays:
[1] = target: T1, DNA-PK phosphorylation at Serine 2056 (Homo sapiens, UniProt P78527); test: Cellular Assay for Inhibition of DNA-PK Phosphorylation at Serine 2056 in FaDu cells (sandwich ELISA, neocarzinostatin); type: cell-based; details: pSer2056 DNA-PK, neocarzinostatin 1 μg/mL, Table 1
T1 construct: FaDu cells were purchased from ATCC; host or cells: FaDu
Procedure, shortened: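 pSer2056 and total DNA-PK were measured by sandwich ELISA in BCA-normalised FaDu lysates. Cells had 1 h compound exposure (0.3% DMSO), then 2 h with 1 μg/mL final neocarzinostatin. IC50 was fitted (variable slope) to % inhibition scaled against NCS-stimulated and DMSO-only controls.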

[2] = Microsomal Stability Assay, mouse liver microsomes; type: in vitro ADME; details: for microsomal CLint at 0.1 uM: male, CD-1, pH 7.4, mouse liver microsomes 0.1 mg/mL, 0.1 uM compound; for Microsomal Stability Mouse % rem. 60 min: mouse liver microsomes
Method: (§1) Samples were then mixed and centrifuged. Supernatants were used for HPLC-MS/MS analysis. […] Peak areas corresponding to the test compound were recorded.

[3] = Microsomal Stability Assay, human liver microsomes; type: in vitro ADME; details: for microsomal CLint at 0.1 uM: both sexes, pH 7.4, human liver microsomes 0.1 mg/mL, 0.1 uM compound; for Microsomal Stability Human % rem. 60 min: human liver microsomes
Method: as §1

[4] = Hepatocyte Stability Assay, human hepatocytes; type: in vitro ADME; details: for hepatocyte CLint at 1 uM: both sexes, cryopreserved hepatocytes, pH 7.3, human hepatocytes 0.7 million cells per mL, 1 uM compound; for Hepatocyte Stability Human % rem. 120 min: human hepatocytes
Method: Cryopreserved mouse hepatocytes were obtained from a pool of 10 or more male CD-1 mice. Cryopreserved human hepatocytes were obtained from a pool of 10 or more donors of mixed gender. Final hepatocyte density was 0.7 million viable cells per mL and test compound concentration was 1 uM with a maximum of 0.01% DMSO. Cryopreserved hepatocytes were thawed, washed, and resuspended in Krebs-Heinslet buffer (pH 7.3). The reaction was initiated by adding the test compound into cell suspension and incubated for 0, […], 1, 1.5, and 2 h, respectively, at 37° C./5% C02. The reaction was stopped by adding acetonitrile into the incubation mixture. Samples were then mixed, transferred completely to another 96-well plate, and centrifuged. Supernatants were used for HPLC-MS/MS analysis. […] Peak areas corresponding to the test compound were recorded.

| Compound | pIC50 [1] | microsomal CLint at 0.1 uM [2] [µL/min/mg] | Microsomal Stability Mouse % rem. 60 min [2] | microsomal CLint at 0.1 uM [3] [µL/min/mg] | Microsomal Stability Human % rem. 60 min [3] | hepatocyte CLint at 1 uM [4] [µL/min/1e6 cells] | Hepatocyte Stability Human % rem. 120 min [4] |
| --- | --- | --- | --- | --- | --- | --- | --- |
| CNC(=O)COc1cnc(N[C@H]2CC[C@@H](Oc3nc(N4CCOCC4)cc4ncccc34)CC2)nc1 [Compound 71, N-Methyl-2-((2-(((1s,4s)-4-((7-morpholino-1,6-naphthyridin-5-yl)oxy)cyclohexyl)amino)pyrimidin-5-yl)oxy)acetamide] | > 7.00 | < 116 | G (% remaining = 50-75%) | < 116 | F (% remaining = 25-50%) | < 8.2 | G (% remaining = 50-75%) |
| O=C(COc1cnc(N[C@H]2CC[C@@H](Oc3nc(N4CCOCC4)cc4ncccc34)CC2)nc1)N1CCC1 [Compound 75, 1-(Azetidin-1-yl)-2-((2-(((1s,4s)-4-((7-morpholino-1,6-naphthyridin-5-yl)oxy)cyclohexyl)amino)pyrimidin-5-yl)oxy)ethan-1-one] | > 7.00 | < 116 | G (% remaining = 50-75%) | > 116 | F (% remaining = 25-50%) | < 8.2 | H (% remaining = 75-100%) |
| CN1CCN(CCOc2cnc(N[C@H]3CC[C@@H](Oc4nc(N5CCOCC5)cc5ncccc45)CC3)nc2)CC1 [Compound 69, 5-(2-(4-Methylpiperazin-1-yl)ethoxy)-N-((1s,4s)-4-((7-morpholino-1,6-naphthyridin-5-yl)oxy)cyclohexyl)pyrimidin-2-amine] | > 7.00 | > 116 | F (% remaining = 25-50%) | < 116 | G (% remaining = 50-75%) | < 8.2 | G (% remaining = 50-75%) |
| NCCOc1cnc(N[C@H]2CC[C@@H](Oc3nc(N4CCOCC4)cc4ncccc34)CC2)nc1 [Compound 65, 5-(2-Aminoethoxy)-N-((1s,4s)-4-((7-morpholino-1,6-naphthyridin-5-yl)oxy)cyclohexyl)pyrimidin-2-amine] | > 7.00 | < 116 | G (% remaining = 50-75%) | > 116 | G (% remaining = 50-75%) | < 8.2 | F (% remaining = 25-50%) |
| CN(C)C(=O)COc1ccc(C(=O)N[C@H]2CC[C@@H](Oc3nc(N4CCOCC4)cc4ncccc34)CC2)cn1 [Compound 117, 6-(2-(dimethylamino)-2-oxoethoxy)-N-((1s,4s)-4-((7-morpholino-1,6-naphthyridin-5-yl)oxy)cyclohexyl)nicotinamide] | > 7.00 | < 116 | F (% remaining = 25-50%) | > 116 | E (% remaining = 0-25%) | < 8.2 | G (% remaining = 50-75%) |
| CC(=O)NCCOc1cnc(N[C@H]2CC[C@@H](Oc3nc(N4CCOCC4)cc4ncccc34)CC2)nc1 [Compound 66] | > 7.00 | < 116 | G (% remaining = 50-75%) | > 116 | F (% remaining = 25-50%) | < 8.2 | G (% remaining = 50-75%) |
| CN(C)C(=O)COc1cnc(N[C@H]2CC[C@@H](Oc3nc(N4CCOCC4)cc4ncccc34)CC2)nc1 [Compound 54, N,N-Dimethyl-2-((2-(((1s,4s)-4-((7-morpholino-1,6-naphthyridin-5-yl)oxy)cyclohexyl)amino)pyrimidin-5-yl)oxy)acetamide] | > 7.00 | < 116 | G (% remaining = 50-75%) | > 116 | E (% remaining = 0-25%) | < 8.2 | F (% remaining = 25-50%) |
| O=C(COc1cnc(N[C@H]2CC[C@@H](Oc3nc(N4CCOCC4)cc4ncccc34)CC2)nc1)N1CCNCC1 [Compound 63, 2-((2-(((1s,4s)-4-((7-Morpholino-1,6-naphthyridin-5-yl)oxy)cyclohexyl)amino)pyrimidin-5-yl)oxy)-1-(piperazin-1-yl)ethan-1-one] | > 7.00 | > 116 | F (% remaining = 25-50%) | < 116 | H (% remaining = 75-100%) | > 8.2 | F (% remaining = 25-50%) |
| CN(C)C(=O)Cn1ccc2nc(N[C@H]3CC[C@@H](Oc4nc(N5CCOCC5)cc5ncccc45)CC3)ncc21 [Compound 86, N,N-Dimethyl-2-(2-(((1s,4s)-4-((7-morpholino-1,6-naphthyridin-5-yl)oxy)cyclohexyl)amino)-5H-pyrrolo[3,2-d]pyrimidin-5-yl)acetamide] | > 7.00 | < 116 | G (% remaining = 50-75%) | < 116 | G (% remaining = 50-75%) | < 8.2 | H (% remaining = 75-100%) |
| CN(C)C(=O)Cn1ccc(C(=O)N[C@H]2CC[C@@H](Oc3nc(N4CCOCC4)cc4ncccc34)CC2)c1 [Compound 141, 1-(2-(dimethylamino)-2-oxoethyl)-N-((1s,4s)-4-((7-morpholino-1,6-naphthyridin-5-yl)oxy)cyclohexyl)-1H-pyrrole-3-carboxamide] | > 7.00 | < 116 | G (% remaining = 50-75%) | < 116 | G (% remaining = 50-75%) | < 8.2 | G (% remaining = 50-75%) |
| O=C(COc1cnc(N[C@H]2CC[C@@H](Oc3nc(N4CCOCC4)cc4ncccc34)CC2)nc1)N1CCOCC1 [Compound 61, 1-Morpholino-2-((2-(((1s,4s)-4-((7-morpholino-1,6-naphthyridin-5-yl)oxy)cyclohexyl)amino)pyrimidin-5-yl)oxy)ethan-1-one] | > 7.00 | < 116 | H (% remaining = 75-100%) | > 116 | F (% remaining = 25-50%) | < 8.2 | G (% remaining = 50-75%) |
| CN(C)C(=O)Cn1c(=O)n(C2CCOCC2)c2nc(N[C@H]3CC[C@@H](Oc4nc(N5CCOCC5)cc5ncccc45)CC3)ncc21 [Compound 97, N,N-Dimethyl-2-(2-(((1s,4s)-4-((7-morpholino-1,6-naphthyridin-5-yl)oxy)cyclohexyl)amino)-8-oxo-9-(tetrahydro-2H-pyran-4-yl)-8,9-dihydro-7H-purin-7-yl)acetamide] | > 7.00 | < 116 | F (% remaining = 25-50%) | > 116 | E (% remaining = 0-25%) | < 8.2 | G (% remaining = 50-75%) |
| CN(C)C(=O)COc1cnc(N[C@H]2CC[C@@H](Oc3nc(N4CCOCC4)cc4ncc(NS(C)(=O)=O)cc34)CC2)nc1 [Compound 182, N,N-dimethyl-2-((2-(((1s,4s)-4-((3-(methylsulfonamido)-7-morpholino-1,6-naphthyridin-5-yl)oxy)cyclohexyl)amino)pyrimidin-5-yl)oxy)acetamide] | 6.00 to 7.00 | < 116 | G (% remaining = 50-75%) | < 116 | G (% remaining = 50-75%) | < 8.2 | H (% remaining = 75-100%) |
